Data as given in patent publication US20250051283A1, “THERAPEUTIC COMPOUNDS AND METHODS” (priority 2023, published 2025).

What follows are compounds tested against T1, EV-D68 2A^pro (WT-2A^pro, strain US/KY/14-18953, expressed in E. coli BL21(DE3) from pE-SUMOstar vector) (enterovirus D68, UniProt A0A097BW19) (assay: FRET-based enzymatic assay of EV-D68 2A^pro inhibition (FRET substrate Dabcyl-KIRIVNT/GPGFGGE-Edans)). Conditions: not given.
T1 construct: E. coli-codon-optimised gene, pE-SUMOstar, His-SUMO tag (removed with SUMO protease for nontagged form), E. coli BL21(DE3), Ni-NTA; 7JRE is the C107A mutant
Type: biochemical
Protocol: (§1) FIG. 4. […] Key structural variations compared to telaprevir were highlighted in red. Enzymatic inhibitory activity IC50 value was determined in the FRET-based assay. Antiviral EC50 value was determined in the CPE assay with EV-D68 US/MO/14-18947 in R.D. cells. Cytotoxicity CC50 value was determined using the neutral red uptake method in R.D. cells. The results are the mean±standard deviation of two independent experiments with three repeats in each experiment.
as §1, with “5.” for “4.”, “Jun8861” for “telaprevir”
Protein expression and purification. EV-D68 2A^pro gene from strain US/KY/14-18953 was ordered from Genscript (Piscataway, NJ) in pET28b(+) vector with E. coli codon optimization. 2A^pro gene was subcloned into pE-SUMOstar vector according to the manufacturers protocol. Plasmid encoding WT-2A^pro was transformed into BL21(DE3) competent E. coli cells, and a single colony was picked and used to inoculate 10 mL of L.B. grown supplemented with 50 μg/mL kanamycin at 37° C. at 250 rpm. The 10 mL inoculant was added to 1 L of L.B. with 50 μg/mL kanamycin and grown to an OD600 of 0.8-1.0, cooled to 18° C., then induced using 0.5 mM IPTG. Induced cultures were incubated at 18° C. for an additional 24 h, then harvested and resuspended in lysis buffer (25 mM Tris (pH 7.5); 750 mM NaCl, 2 mM DTT with 0.5 mg/mL lysozyme, 0.5 mM PMSF and 0.02 mg/mL DNase I) and lysed with alternating sonication and French press cycles. The cell debris were removed by centrifugation at 12,000×g for 45 min […]. The supernatant was incubated with Ni-NTA resin for over 2 h at 4° C. on a rotator. The Ni-NTA resin was thoroughly washed with 50 mM imidazole in wash buffer (50 mM Tris (pH 7.5), 150 mM NaCl, and 2 mM DTT); for the SUMO-tagged protein, the protein was directly eluted with 300 mM imidazole; for the nontagged 2A^pro Ni-NTA resin was treated with SUMO Protease 1 to remove the SUMO tag, then 2A^pro was washed off from the column with 10 mM imidazole in wash buffer. The imidazole was removed via dialysis or 10 K molecular weight cut-off centrifugal concentrator spin column. The purity of the protein was confirmed with SDS-PAGE. The protein concentration was determined by classic BCA assay using bovine serum albumin as a standard. EV-D68 3C^pro in pET28b(+) vector was expressed as previously described^10.
Peptide synthesis. The FRET substrate of EV-D68 2A^pro, Dabcyl-KIRIVNT/GPGFGGE-Edans, was synthesized using the Fmoc solid phase synthesis strategy.
Enzymatic assays. The reaction buffer contains 50 mM Tris (pH7.0), 150 mM NaCl, 10% Glycerol, and 2 mM DTT, and the reaction was carried out at 30° C. in Cytation 5 imaging reader (Fisher Scientific) with EX360/40-EM460/40 filter. Reactions were monitored every 90 sec. […] The reaction was initiated by adding 20 μM of FRET substrate, and the reaction was monitored for 2 hours and initial velocity was calculated for the first 30 minutes via linear regression.

Structure (SMILES)	IC50
CCCC(NC(=O)C1C2CCCC2CN1C(=O)C(NC(=O)CC12CC3CC(CC(O)(C3)C1)C2)C(C)(C)C)C(=O)C(=O)NC1CC1 [Jun922, (1S,3aR,6aS)—N—((S)-1-(cyclopropylamino)-1,2-dioxohexan-3-yl)-2-((S)-2-(2-((1r,3R,5R,7S)-3-hydroxyadamantan-1-yl)acetamido)-3,3-dimethylbutanoyl)octa-hydrocyclopenta[c]pyrrole-1-carboxamide]	400 ± 50 nM
CC(C)(C)[C@H](NC(=O)CC12CC3CC(CC(C3)C1)C2)C(=O)N1C[C@@H]2CCC[C@@H]2[C@H]1C(=O)N[C@H](C(=O)C(=O)NC1CC1)c1ccc(F)cc1 [Jun11861, (1S,3aR,6aS)-2-((S)-2-(2-((3S,5S,7S)-adamantan-1-yl)acetamido)-3,3-dimethylbutanoyl)-N—((S)-3-(cyclopropylamino)-1-(4-fluorophenyl)-2,3-dioxopropyl)octahydrocyclopenta[c]pyrrole-1-carboxamide]	350 ± 130 nM
CC(C)(C)[C@H](NC(=O)CC12CC3CC(CC(C3)C1)C2)C(=O)N1C[C@@H]2CCC[C@@H]2[C@H]1C(=O)N[C@@H](CC1CC1)C(=O)C(=O)NC1CC1 [Jun11761, (1S,3aR,6aS)-2-((S)-2-(2-((3S,5S,7S)-adamantan-1-yl)acetamido)-3,3-dimethylbutanoyl)-N—((S)-1-cyclopropyl-4-(cyclopropylamino)-3,4-dioxobutan-2-yl)octahydrocyclopenta[c]pyrrole-1-carboxamide]	140 ± 10 nM
CC(C)(C)C(NC(=O)CC12CC3CC(CC(C3)C1)C2)C(=O)N1CC2CCCC2C1C(=O)NC(C(=O)C(N)=O)C1CCCCC1 [Jun11725, (1S,3aR,6aS)-2-((S)-2-(2-((3S,5S,7S)-adamantan-1-yl)acetamido)-3,3-dimethylbutanoyl)-N—((S)-3-amino-1-cyclohexyl-2,3-dioxopropyl)octahydro-cyclopenta[c]pyrrole-1-carboxamide]	190 ± 20 nM
CC(C)(C)[C@H](NC(=O)CC12CC3CC(CC(C3)C1)C2)C(=O)N1C[C@@H]2CCC[C@@H]2[C@H]1C(=O)N[C@H](C(=O)C(=O)NC1CC1)c1ccccc1 [Jun11817, (1S,3aR,6aS)-2-((S)-2-(2-((3S,5S,7S)-adamantan-1-yl)acetamido)-3,3-dimethylbutanoyl)-N—((S)-3-(cyclopropylamino)-2,3-dioxo-1-phenylpropyl)octahydrocyclopenta[c]pyrrole-1-carboxamide]	230 ± 80 nM
CC(C)(C)[C@H](NC(=O)CC12CC3CC(CC(C3)C1)C2)C(=O)N1C[C@@H]2CCC[C@@H]2[C@H]1C(=O)NC1(C(=O)C(=O)NC2CC2)CCC1 [Jun11806, (1S,3aR,6aS)-2-((S)-2-(2-((3S,5S,7S)-adamantan-1-yl)acetamido)-3,3-dimethylbutanoyl)-N-(1-(2-(cyclopropylamino)-2 oxoacetyl)cyclobutyl)octahydrocyclopenta[c]pyrrole-1-carboxamide]	4810 ± 810 nM
CC(C)(C)[C@H](NC(=O)CC12CC3CC(CC(C3)C1)C2)C(=O)N1C[C@@H]2CCC[C@@H]2[C@H]1C(=O)N[C@@H](Cc1ccsc1)C(=O)C(=O)NC1CC1 [Jun11818]	120 ± 20 nM
CC(C)(C)[C@H](NC(=O)CC12CC3CC(CC(C3)C1)C2)C(=O)N1C[C@@H]2CCC[C@@H]2[C@H]1C(=O)NC1(C(=O)C(=O)NC2CC2)CCCCC1 [Jun11805, (1S,3aR,6aS)-2-((S)-2-(2-((3S,5S,7S)-adamantan-1-yl)acetamido)-3,3-dimethylbutanoyl)-N-(1-(2-(cyclopropylamino)-2-oxoacetyl)cyclohexyl)octahydrocyclopenta[c]pyrrole-1-carboxamide]	740 ± 140 nM
CCCC(NC(=O)C1C2CCCC2CN1C(=O)C(NC(=O)CC1C2CC3CC(C2)CC1C3)C(C)(C)C)C(=O)C(=O)NC1CC1 [Jun1024, (1S)-2-((S)-2-(2-((1S,3S,5S,7S)-adamantan-2-yl)acetamido)-3,3-dimethylbutanoyl)-N—((S)-1-(cyclopropylamino)-1,2-dioxohexan-3-yl)octahydrocyclopenta[c]pyrrole-1-carboxamide]	120 ± 10 nM
COC[C@H](NC(=O)[C@@H]1[C@H]2CCC[C@H]2CN1C(=O)[C@@H](NC(=O)CC12CC3CC(CC(C3)C1)C2)C(C)(C)C)C(=O)C(=O)NC1CC1 [Jun11672, (1S,3aR,6aS)-2-((S)-2-(2-((3S,5S,7S)-adamantan-1-yl)acetamido)-3,3-dimethylbutanoyl)-N—((S)-4-(cyclopropylamino)-1-methoxy-3,4-dioxobutan-2-yl)octahydrocyclopenta[c]pyrrole-1-carboxamide]	120 ± 70 nM

Each compound was assayed on EV-D68 US/MO/14-18947 (assay: CPE assay (neutral red) with EV-D68 US/MO/14-18947 in R.D. cells). Conditions: CPE assay, EV-D68 US/MO/14-18947 in R.D. cells.
Type: cell-based, Enterovirus D68
Protocol: Cell lines and viruses. Human rhabdomyosarcoma (R.D., ATCC, CCL-136) cells were maintained at 37° C. in a 5% CO2 atmosphere and cultured in Dulbecco's modified Eagle's medium (DMEM) supplemented with 10% fetal bovine serum (FBS) and 1% penicillin-streptomycin antibiotics. The following reagents were obtained through BEI Resources, NIAID, NIH: Human Enterovirus D68, US/MO/14-18949, NR-49130; Enterovirus D68, US/MO/14-18947, NR-49129; Enterovirus D68, US/IL/14-18952, NR-49131; Enterovirus D68, US/KY/14-18953, NR-49132; Enterovirus D68, US/IL/14-18956, NR-49133.
Antiviral assays. Cells for antiviral assays were seeded and grown overnight at 37° C. in a 5% CO2 atmosphere for ˜90% confluency the next day. For all infections, cells were washed with PBS containing magnesium and calcium and infected with virus diluted in DMEM with 2% FBS and 30 mM MgCl2. Viruses were incubated for at least 1 h at 33° C. in a 5% CO2 atmosphere, followed by the addition of compound as well as 1% penicillin-streptomycin. For CC50 measurements, the experiment was performed similarly but excluded viral infection. For cytopathic effect (CPE) assays, cells were stained with 66 µg/mL neutral red for 2 h and neutral red uptake was measured at absorbance 540 nm using a Multiskan FC Microplate Photometer (ThermoFisher Scientific). The EC50 and CC50 values were calculated from best-fit dose response curves using GraphPad Prism. For plaque reduction assays, an 1.2% avicel microcrystalline cellulose (FMC BioPolymer, Philadelphia, PA) overlay was used and cells were stained after 3 days as previously described^26.

Structure (SMILES)	antiviral activity, in words, relative to the named comparator
CC(C)(C)[C@H](NC(=O)CC12CC3CC(CC(C3)C1)C2)C(=O)N1C[C@@H]2CCC[C@@H]2[C@H]1C(=O)N[C@@H](CC1CC1)C(=O)C(=O)NC1CC1 [Jun11761, (1S,3aR,6aS)-2-((S)-2-(2-((3S,5S,7S)-adamantan-1-yl)acetamido)-3,3-dimethylbutanoyl)-N—((S)-1-cyclopropyl-4-(cyclopropylamino)-3,4-dioxobutan-2-yl)octahydrocyclopenta[c]pyrrole-1-carboxamide]	failed to improve the antiviral potency compared to Jun8861

Same assay, conditions: CPE assay, EV-D68 US/MO/14-18947 in R.D. cells; read-out: Antiviral EC50

Structure (SMILES)	EC50
CCC[C@H](NC(=O)[C@@H]1[C@H]2CCC[C@H]2CN1C(=O)[C@@H](NC(=O)C[C@@]12C[C@@H]3C[C@@H](C[C@@](O)(C3)C1)C2)C(C)(C)C)C(=O)C(=O)NC1CC1 [Jun922, (1S,3aR,6aS)—N—((S)-1-(cyclopropylamino)-1,2-dioxohexan-3-yl)-2-((S)-2-(2-((1r,3R,5R,7S)-3-hydroxyadamantan-1-yl)acetamido)-3,3-dimethylbutanoyl)octa-hydrocyclopenta[c]pyrrole-1-carboxamide]	1850 nM
CCC[C@H](NC(=O)[C@@H]1[C@H]2CCC[C@H]2CN1C(=O)[C@@H](NC(=O)CC1C2CC3CC(C2)CC1C3)C(C)(C)C)C(=O)C(=O)NC1CC1 (stereo partly drawn) [Jun1024, (1S)-2-((S)-2-(2-((1S,3S,5S,7S)-adamantan-2-yl)acetamido)-3,3-dimethylbutanoyl)-N—((S)-1-(cyclopropylamino)-1,2-dioxohexan-3-yl)octahydrocyclopenta[c]pyrrole-1-carboxamide]	180 nM

Same assay, conditions: Enterovirus D, EVD68, RD; CPE assay, EV-D68 US/MO/14-18947 in R.D. cells; read-out: Antiviral EC50

Structure (SMILES)	EC50
CCC[C@@H](C#N)NC(=O)[C@@H]1[C@H]2CCC[C@H]2CN1C(=O)C(NC(=O)CC12CC3CC(CC(C3)C1)C2)C(C)(C)C (stereo partly drawn) [Jun11191, (1S,3aR,6aS)-2-((S)-2-(2-((3S,5S,7S)-adamantan-1-yl)acetamido)-3,3-dimethylbutanoyl)-N—((S)-1-cyanobutyl) octahydro-cyclopenta[c]pyrrole-1-carboxamide]	3920 nM
